In patent US20250008983A1, “COMPOSITIONS CONTAINING PEROXYACIDS TO CONTROL PATHOGEN GROWTH IN ANIMAL FEED AND RELATED METHODS” (KEMIN INDUSTRIES, INC., priority 2023, published 2025):
Values after ≈ are worked out from the molar mass of the structure shown. Marks after values point to notes of the source that are not given here.

Columns and labels:
[1] = Stability of PPA in various diluent (peroxy value by titrimetry); format: physicochemical
Experimental: Stability of PPA in various diluent. In a separate study, the peroxy value of the mixture was estimated using the titrimetry procedure in 10 minutes and after 4 h of preparing the PPA solution with different diluents.
The peroxy acid value of PPA, when diluted with different diluents, is summarized below in Table 12.

[2] = test system: Escherichia coli ATCC 25922; experiment: Minimum inhibitory concentration (MIC), broth microdilution; format: cell-based
Experimental: Materials and Methods. The assay was conducted to determine the minimum inhibitory concentration (MIC) of peroxy-acids against Escherichia coli ATCC 25922. E. coli was purchased from American Type Culture Collection (ATCC). The strain was stored at −80° C. in glycerol. Prior to usage, E. coli was revived by streaking a loopful of culture onto TSAYE (i.e., tryptone soya agar yeast extract (CM0131 and LP0021; Oxoid) prepared as per recommended by Oxoid) with overnight incubation at 37° C. An overnight culture of E. coli was diluted in TSBYE (i.e, tryptone soya broth yeast extract (CM0129; Oxoid) prepared as per recommended by Oxoid) to obtain a cell suspension of ca. 10^5 CFU/mL. Subsequently, 100 μL of the diluted culture was added to 100 μL of the test solutions at the needed concentrations into a microtiter plate (92096; TPP Techno Plastic Products AG). Peroxy-acids were tested at an active concentration of 25-1600 μg/mL. Subsequently, the inoculated plate was incubated at 37° C. up to 48 hours with the bacterial cell density recorded at optical density (OD) 600 nm at 24 hours interval using a microplate reader (Varioskan LUX; Thermo Fisher).

[3] = test system: Salmonella enteriditis ATCC 13076; experiment: DNA interaction Assay 2: treatment added to cells followed by extraction; format: cell-based; settings: 1 kg/T; two hours at 37° C.; n = 3
Experimental: Method (Assay 1: Treatment added to extracted DNA directly). One mL of cell suspension (ca. 10^8 cfu/mL in TSBYE) was harvested by centrifugation at 5000 rcf for 10 minutes. The supernatant was discarded and resuspended as detailed in the protocol provided by the supplier. DNA was extracted using the QIAamp DNA Mini kit (Cat #51304, Qiagen). The samples were incubated at 56° C. for two hours and eluted with 200 uL of nuclease-free water. The same eluent was run through the column twice to increase the DNA concentration. Extracted DNA was quantified using Quant-iT dsDNA high-sensitivity assay kit (Q33120; Thermo Fischer Scientific). Extracted DNA was subsequently treated with the different treatment groups with a final concentration of 1 kg/T (prepared in 10 mM PBS). 1.5 uL of treatment solution (prepared at 10 times higher concentration) is added to 13.5 uL of extracted DNA. The solution was mixed well and left to stand at room temperature for one hour. After one hour, the solution was diluted with nuclease-free water 10 times. DNA was subsequently quantified using Quant-iT dsDNA high-sensitivity assay kit (Q33120; Thermo Fischer Scientific). Method (Assay 2: Treatment added to cells followed by extraction). […] Extracted DNA was quantified using Quant-iT dsDNA high-sensitivity assay kit (Q33120; Thermo Fischer Scientific). […]

[4] = 2.5% ammonium hydroxide, after 10 minutes
[5] = 2.5% ammonium hydroxide, after 240 minutes
[6] = 5% sodium hydroxide, after 10 minutes
[7] = 5% sodium hydroxide, after 240 minutes
[8] = Deionized Water, after 10 minutes
[9] = Deionized Water, after 240 minutes
[10] = Sodium phosphate buffer, after 10 minutes
[11] = Sodium phosphate buffer, after 240 minutes

SMILES: CCC(=O)OO [Perpropionic acid, perpropionic acid]
- pH ([1]; 2 g PPA + 8 g 2.5% ammonium hydroxide): 6.11
- pH ([1]; 2 g PPA + 8 g 5% sodium hydroxide): 5.44
- pH ([1]; 2 g PPA + 8 g Deionized Water): 1.77
- pH ([1]; 2 g PPA + 8 g Sodium phosphate buffer): 5.34
- H2O2 (%) [1, 4]: 1.85%
- PPA (%) [1, 4]: 4.18%
- H2O2 (%) [1, 5]: 2.34%
- PPA (%) [1, 5]: 3.31%
- H2O2 (%) [1, 6]: 1.47%
- PPA (%) [1, 6]: 4.4%
- H2O2 (%) [1, 7]: 1.12%
- PPA (%) [1, 7]: 2.55%
- H2O2 (%) [1, 8]: 1.85%
- PPA (%) [1, 8]: 5.54%
- H2O2 (%) [1, 9]: 1.96%
- PPA (%) [1, 9]: 4.75%
- H2O2 (%) [1, 10]: 1.92%
- PPA (%) [1, 10]: 5.82%
- H2O2 (%) [1, 11]: 1.88%
- PPA (%) [1, 11]: 5.19%
- Minimum inhibitory concentration (μg/mL) against E. coli ([2]; no increment in OD over 48 hours, 37° C.): 500 µg/mL (≈ 5.55 mM)
- MIC ([2]; preliminary results): 500 ppm
- DNA concentration, Average ± SD, Assay 2 [3]: 34.97 ± 4.54^a ng/uL
